Results as given in US12504423B2, “Human in vitro cardiotoxicity model” (Brown University, priority 2020, dated 2025).
Where two headings read alike, the source gives them in different places.

Key:
hiPSC-CM microtissues [1] = assay: Cardiac TEEM: optical mapping of action potentials in 3D human cardiac microtissues
Protocol: Optical mapping and automated action potential duration analysis. The inventors used an Olympus MVX10 microscope to image 1.2×1.2-mm^2 regions. Microtissues were loaded with voltage-sensitive di-4-ANEPPS (5 μM for ten minutes at 35° C.) for measurements of membrane potential (Vm). […] Fluorescence images were filtered using nonlinear bilateral filter (spatial filter: 5×5 window, temporal filter: 21-point window) to preserve action potential upstrokes from blurring. Typically, four microtissues were recorded simultaneously/scan at this magnification. A single microtissue is typically covered by ˜60 pixels at this magnification. The pixels with action potentials were identified from Fast Fourier transformation (FFT) of fluorescence signals. After appropriate thresholding and image segmentation, the region of each microtissue was grouped and the fluorescence signals from the pixels in the same microtissue were average and used for action potential analysis.
Optical mapping and automated action potential analysis (alternative). Microtissues were loaded with voltage-sensitive di-4-ANEPPS (5 μM for 10 min at 35° C.) for measurements of membrane potential (Vm). […] Typically, four microtissues were recorded simultaneously per scan at this magnification. A step-by-step illustration of automated data analysis is available in FIGS. 4A-G. Briefly, the pixels with APs were identified from Fast Fourier transformation (FFT) of fluorescence signals. After appropriate thresholding and image segmentation, the region of each microtissue was grouped and the fluorescence signals from the pixels in the same microtissue were average and used for action potential analysis.
Validation and screening of toxicants for arrhythmogenic risk. […] Concentrations are selected to span human exposure levels or blood serum levels and quantify dose-dependent changes over a wide range (with a goal of more than 10,000× change in concentration and at least 4-6 doses). A single mold of microtissues is imaged for approximately 1 hour to assure quality recordings without signal degradation due to tissue degeneration, enabling measurement under control conditions (zero compound) and 3 doses.
Validation and screening of toxicants for arrhythmogenic risk (alternative). […] Microtissues were stimulated with a platinum field stimulation electrode. Myopacer EP field stimulator, IonOptix, Milton, MA, USA). […] BPA was dissolved in 10% ethanol stock solution and diluted in Tyrode solution to the final concentration. Microtissues were exposed to vehicle (DMSO or ethanol) and the indicated concentrations of test compounds for 20 min, and action potentials were measured as described above.
The Cardiac Tissue-Engineered Model (TEEM) uses human cardiomyocytes derived from human pluripotent stem cells, which express all the human proteins, ion channels and currents necessary for assessing a human-specific arrhythmic and cardiotoxic response, including the seven critical ion channels identified by the FDA's CiPA initiative. […] The intensity of the signal gives a reading of voltage (in the millivolt range) overtime, which is the action potential trace. A similar dye that fluoresces in response to the intracellular calcium (Ca^2+) concentration gives a calcium transient (CaT) for each activation of each cardiac microtissue. See above.

hiPSC-CM microtissues [2] = assay: Calcium transient (CaT) recording of spontaneous activity in hiPSC-CM microtissues; type: cell-based, human; details: 100 nM
Protocol: FIGS. 1A-C are a set of graphs showing the stimulation protocol and CaT metrics. […] CaTs were recorded using Rhod-2/AM. […] Activation Interval (AI), the time between two CaTs, will be measured before and after drug perfusion to detect altered spontaneous activity. CaTs recorded with the genetically encoded optogenetic probe GCaMP.
The inventors also developed a platform suitable for cardiotoxicity testing that can detect alteration in Cai release and removal processes from hiPSC-CM microtissues by measuring detailed kinetic parameters of Cai dynamics during a proposed stimulation protocol as shown in FIGS. 1A-C.

[3] = Ranolazine steady-state Cmax in blood serum (FDA documentation); type: in vivo; details: human, 1000 mg, 1000 mg b.i.d., bracketed conversion
[4] = system: late sodium current (INa,late); details: read-out: IC50, late sodium current (INa,late) block; cited from earlier work
late ICa = late ICa (Homo sapiens, UniProt Q13936); details: cited from earlier work
INCX = INCX (Homo sapiens, UniProt P32418); details: cited from earlier work
peak ICa = peak ICa (Homo sapiens, UniProt Q13936); details: cited from earlier work
[5] = 1000 mg b.i.d.; blood serum; cited from earlier work
sodium channel Nav1.5 = sodium channel Nav1.5 (Homo sapiens, UniProt Q14524); details: read-out: IC50, block of sodium channel Nav1.5; cited from earlier work
rats = details: rodents; greater sensitivity in female rats than male rats; cited from earlier work

late ICa, sequence (Q13936 whole entry): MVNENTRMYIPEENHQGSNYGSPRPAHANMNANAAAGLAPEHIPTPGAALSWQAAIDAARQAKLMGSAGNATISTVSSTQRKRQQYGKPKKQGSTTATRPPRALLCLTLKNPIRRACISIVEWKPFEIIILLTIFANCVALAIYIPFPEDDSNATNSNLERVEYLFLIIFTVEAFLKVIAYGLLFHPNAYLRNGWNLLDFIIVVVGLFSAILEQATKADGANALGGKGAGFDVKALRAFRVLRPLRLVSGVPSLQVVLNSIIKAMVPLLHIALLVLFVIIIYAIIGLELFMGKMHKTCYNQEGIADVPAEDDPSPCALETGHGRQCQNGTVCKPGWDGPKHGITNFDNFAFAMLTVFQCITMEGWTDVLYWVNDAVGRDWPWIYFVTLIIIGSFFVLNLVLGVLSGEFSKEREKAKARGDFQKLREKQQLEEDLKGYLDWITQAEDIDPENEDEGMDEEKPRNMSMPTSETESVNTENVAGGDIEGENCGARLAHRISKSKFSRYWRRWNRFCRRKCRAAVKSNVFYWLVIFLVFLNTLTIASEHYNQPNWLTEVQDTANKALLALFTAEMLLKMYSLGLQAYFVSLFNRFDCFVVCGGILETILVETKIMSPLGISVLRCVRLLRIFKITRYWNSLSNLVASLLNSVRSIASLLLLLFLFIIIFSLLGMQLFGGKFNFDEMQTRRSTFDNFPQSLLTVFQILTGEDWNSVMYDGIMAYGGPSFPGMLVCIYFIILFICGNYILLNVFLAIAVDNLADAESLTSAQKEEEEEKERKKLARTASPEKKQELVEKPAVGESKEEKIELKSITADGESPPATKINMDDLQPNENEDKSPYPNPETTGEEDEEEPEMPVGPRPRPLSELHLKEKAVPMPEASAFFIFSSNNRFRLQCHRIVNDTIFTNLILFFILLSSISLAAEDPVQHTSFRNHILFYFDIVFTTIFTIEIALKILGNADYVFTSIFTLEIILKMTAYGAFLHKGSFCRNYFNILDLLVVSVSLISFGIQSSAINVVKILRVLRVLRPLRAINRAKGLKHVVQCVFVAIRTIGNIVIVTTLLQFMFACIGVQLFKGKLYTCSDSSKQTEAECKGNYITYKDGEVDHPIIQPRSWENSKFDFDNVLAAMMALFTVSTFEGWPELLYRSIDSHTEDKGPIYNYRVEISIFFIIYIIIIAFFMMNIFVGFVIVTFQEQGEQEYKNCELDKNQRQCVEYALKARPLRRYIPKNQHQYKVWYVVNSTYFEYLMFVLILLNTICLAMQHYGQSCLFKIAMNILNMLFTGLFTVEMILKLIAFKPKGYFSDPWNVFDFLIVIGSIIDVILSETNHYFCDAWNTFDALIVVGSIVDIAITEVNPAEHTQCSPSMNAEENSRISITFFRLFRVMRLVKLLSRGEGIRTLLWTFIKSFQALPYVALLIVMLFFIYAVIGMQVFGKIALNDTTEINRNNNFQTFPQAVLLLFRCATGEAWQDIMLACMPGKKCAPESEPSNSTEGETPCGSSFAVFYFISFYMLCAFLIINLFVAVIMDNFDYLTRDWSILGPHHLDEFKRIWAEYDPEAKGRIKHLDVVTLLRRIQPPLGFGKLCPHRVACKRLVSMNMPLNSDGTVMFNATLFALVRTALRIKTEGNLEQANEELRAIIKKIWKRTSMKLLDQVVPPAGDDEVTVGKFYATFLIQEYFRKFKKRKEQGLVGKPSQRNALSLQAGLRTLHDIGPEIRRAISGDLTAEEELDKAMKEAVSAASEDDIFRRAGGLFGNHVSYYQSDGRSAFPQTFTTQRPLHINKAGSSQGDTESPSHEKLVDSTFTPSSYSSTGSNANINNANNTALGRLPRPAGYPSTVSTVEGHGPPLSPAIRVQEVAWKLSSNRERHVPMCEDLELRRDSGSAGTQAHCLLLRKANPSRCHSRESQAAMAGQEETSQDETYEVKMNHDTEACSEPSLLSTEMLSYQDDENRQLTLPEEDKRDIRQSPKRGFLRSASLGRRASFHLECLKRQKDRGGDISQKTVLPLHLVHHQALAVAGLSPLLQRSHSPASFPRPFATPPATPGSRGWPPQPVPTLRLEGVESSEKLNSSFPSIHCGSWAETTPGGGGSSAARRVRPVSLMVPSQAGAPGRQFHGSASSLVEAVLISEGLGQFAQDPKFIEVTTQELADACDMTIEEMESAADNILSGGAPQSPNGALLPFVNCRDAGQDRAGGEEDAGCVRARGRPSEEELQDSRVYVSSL
late ICa, sequence (Q08289 whole entry partner): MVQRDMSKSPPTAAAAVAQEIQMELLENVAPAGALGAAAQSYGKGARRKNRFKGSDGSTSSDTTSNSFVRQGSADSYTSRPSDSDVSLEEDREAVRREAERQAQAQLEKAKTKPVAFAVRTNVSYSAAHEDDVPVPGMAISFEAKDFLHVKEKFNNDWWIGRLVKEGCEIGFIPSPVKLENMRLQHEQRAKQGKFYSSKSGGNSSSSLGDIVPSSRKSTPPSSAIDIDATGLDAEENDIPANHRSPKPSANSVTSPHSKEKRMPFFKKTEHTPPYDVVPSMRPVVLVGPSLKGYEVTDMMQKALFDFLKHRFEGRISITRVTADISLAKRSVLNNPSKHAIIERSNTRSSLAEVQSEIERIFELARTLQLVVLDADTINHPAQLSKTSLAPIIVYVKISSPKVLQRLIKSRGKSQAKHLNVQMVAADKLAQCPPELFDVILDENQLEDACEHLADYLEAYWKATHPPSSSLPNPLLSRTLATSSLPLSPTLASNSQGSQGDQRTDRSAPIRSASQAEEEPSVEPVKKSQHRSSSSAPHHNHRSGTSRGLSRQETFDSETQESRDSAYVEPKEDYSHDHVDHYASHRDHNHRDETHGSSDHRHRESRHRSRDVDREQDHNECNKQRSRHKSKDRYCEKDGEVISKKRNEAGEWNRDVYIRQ
late ICa, sequence (P54289 25-956 partner limits assumed): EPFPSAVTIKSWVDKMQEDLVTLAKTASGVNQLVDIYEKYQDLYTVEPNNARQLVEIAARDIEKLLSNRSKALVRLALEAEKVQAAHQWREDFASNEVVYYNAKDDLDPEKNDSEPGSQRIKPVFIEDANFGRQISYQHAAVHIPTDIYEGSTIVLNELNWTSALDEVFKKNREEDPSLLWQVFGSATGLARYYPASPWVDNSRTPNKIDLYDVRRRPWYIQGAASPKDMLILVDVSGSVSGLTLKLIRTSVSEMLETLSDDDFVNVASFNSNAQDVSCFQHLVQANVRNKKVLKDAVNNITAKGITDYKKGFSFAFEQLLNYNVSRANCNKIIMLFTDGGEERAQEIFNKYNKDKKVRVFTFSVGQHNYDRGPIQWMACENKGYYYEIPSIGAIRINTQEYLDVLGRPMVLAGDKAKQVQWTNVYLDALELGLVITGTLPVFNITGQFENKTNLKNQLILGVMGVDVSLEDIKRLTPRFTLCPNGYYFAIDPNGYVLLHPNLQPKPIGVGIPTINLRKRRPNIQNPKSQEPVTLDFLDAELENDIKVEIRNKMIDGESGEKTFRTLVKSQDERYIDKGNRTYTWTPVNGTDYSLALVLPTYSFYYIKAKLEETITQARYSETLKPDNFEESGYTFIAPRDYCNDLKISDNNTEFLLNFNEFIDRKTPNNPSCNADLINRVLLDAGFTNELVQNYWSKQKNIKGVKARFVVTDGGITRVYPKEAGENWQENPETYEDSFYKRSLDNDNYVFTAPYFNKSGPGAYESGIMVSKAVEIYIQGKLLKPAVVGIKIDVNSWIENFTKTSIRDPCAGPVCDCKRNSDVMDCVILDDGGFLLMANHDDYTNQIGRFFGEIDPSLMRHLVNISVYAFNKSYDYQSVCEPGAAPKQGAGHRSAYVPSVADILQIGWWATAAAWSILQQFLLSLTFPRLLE
late ICa, sequence (P54289 957-1103 partner limits assumed): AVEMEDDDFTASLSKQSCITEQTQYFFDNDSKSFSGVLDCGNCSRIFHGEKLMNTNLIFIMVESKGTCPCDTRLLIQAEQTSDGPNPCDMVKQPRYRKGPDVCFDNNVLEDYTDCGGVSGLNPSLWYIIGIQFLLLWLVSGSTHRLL
peak ICa, sequence (Q13936 whole entry): as the sequence (Q13936 whole entry) above
peak ICa, sequence (Q08289 whole entry partner): as the sequence (Q08289 whole entry partner) above
peak ICa, sequence (P54289 25-956 partner limits assumed): as the sequence (P54289 25-956 partner limits assumed) above
peak ICa, sequence (P54289 957-1103 partner limits assumed): as the sequence (P54289 957-1103 partner limits assumed) above

For `CC(C)NCC(O)c1ccc(O)c(O)c1` (stereo not shown) [Isoproterenol, isoproterenol], the “average reduction of APD80” value (hiPSC-CM microtissues [1]; human, 20 min, 100 nM) was 45 milliseconds and the “spontaneous activity (CaTs, GCaMP)” value (hiPSC-CM microtissues [2]) was “spontaneous activity increased”.
For `COc1ccccc1OCC(O)CN1CCN(CC(=O)Nc2c(C)cccc2C)CC1` (stereo not shown) [Ranolazine, ranolazine], the “Dose-dependent mean difference of APD30” value (hiPSC-CM microtissues [1]; human, 20 min, 2 μM) was 4.692, the “Dose-dependent mean difference of APD60” value (hiPSC-CM microtissues [1]; human, 20 min, 2 μM) was −2.806 and the “Dose-dependent mean difference of APD80” value (hiPSC-CM microtissues [1]; human, 20 min, 2 μM) was 4.629. The “Dose-dependent mean difference of APDM×R” value (hiPSC-CM microtissues [1]; human, 20 min, 2 μM) was −9.87, the “Dose-dependent mean difference of APDtri” value (hiPSC-CM microtissues [1]; human, 20 min, 2 μM) was −7.031 and the “Dose-dependent mean difference of Rise Time” value (hiPSC-CM microtissues [1]; human, 20 min, 2 μM) was 0.1436. For the same molecule, the “Dose-dependent mean difference of APD30” value (hiPSC-CM microtissues [1]; human, 20 min, 10 μM) was 20.71, the “Dose-dependent mean difference of APD60” value (hiPSC-CM microtissues [1]; human, 20 min, 10 μM) was 20.5335 and the “Dose-dependent mean difference of APD80” value (hiPSC-CM microtissues [1]; human, 20 min, 10 μM) was 79.1112. The “Dose-dependent mean difference of APDM×R” value (hiPSC-CM microtissues [1]; human, 20 min, 10 μM) was 13.1316, the “Dose-dependent mean difference of APDtri” value (hiPSC-CM microtissues [1]; human, 20 min, 10 μM) was −7.337 and the “Dose-dependent mean difference of Rise Time” value (hiPSC-CM microtissues [1]; human, 20 min, 10 μM) was 1.025. For the same molecule, the “Dose-dependent mean difference of APD30” value (hiPSC-CM microtissues [1]; human, 20 min, 100 μM) was 57.9565, the “Dose-dependent mean difference of APD60” value (hiPSC-CM microtissues [1]; human, 20 min, 100 μM) was 108.574 and the “Dose-dependent mean difference of APD80” value (hiPSC-CM microtissues [1]; human, 20 min, 100 μM) was 242.133. For the same molecule, the “Dose-dependent mean difference of APDM×R” value (hiPSC-CM microtissues [1]; human, 20 min, 100 μM) was 353.211, the “Dose-dependent mean difference of APDtri” value (hiPSC-CM microtissues [1]; human, 20 min, 100 μM) was 244.733 and the “Dose-dependent mean difference of Rise Time” value (hiPSC-CM microtissues [1]; human, 20 min, 100 μM) was 12.5916. For the same molecule, the Cmax ([3]; read-out: 95% of Cmax values) was 0.98 to 14.2 µM, the Cmax ([3]; read-out: mean steady-state Cmax) was 6 µM and the IC50 [4] was 5.9 µM. The IC50 (late ICa) was 50 µM, the IC50 (INCX) was 91 µM and the IC50 (peak ICa) was 296 µM. The “mean steady-state Cmax” value [5] was 2.569 µg/mL.
In the case of `CC(C)(c1ccc(O)cc1)c1ccc(O)cc1` [BPA, bisphenol-A], the “action potential duration measurements” value (hiPSC-CM microtissues [1]) is reported as “shifts action potential duration measurements”, the “action potential rise time” value (hiPSC-CM microtissues [1]) is reported as “slowed action potential rise time” and the stimulation delay (hiPSC-CM microtissues [1]) is reported as “increased stimulation delay”. For the same molecule, the “APD30 and APD50 relative to APD80” value (hiPSC-CM microtissues [1]; female, human, 20 min) was “APD30 and APD50 were shortened more than APD80”, the “Dose-dependent mean difference of APD30” value (hiPSC-CM microtissues [1]; human, 20 min, 1 nM) was 34.5043 and the “Dose-dependent mean difference of APD60” value (hiPSC-CM microtissues [1]; human, 20 min, 1 nM) was 37.3566. For the same molecule, the “Dose-dependent mean difference of APD80” value (hiPSC-CM microtissues [1]; human, 20 min, 1 nM) was 42.7763, the “Dose-dependent mean difference of APDM×R” value (hiPSC-CM microtissues [1]; human, 20 min, 1 nM) was 34.0012 and the “Dose-dependent mean difference of APDtri” value (hiPSC-CM microtissues [1]; human, 20 min, 1 nM) was −3.327. The “Dose-dependent mean difference of Rise Time” value (hiPSC-CM microtissues [1]; human, 20 min, 1 nM) was 1.176, the “Dose-dependent mean difference of APD30” value (hiPSC-CM microtissues [1]; human, 20 min, 10 nM) was −15.3826 and the “Dose-dependent mean difference of APD60” value (hiPSC-CM microtissues [1]; human, 20 min, 10 nM) was −14.0569. The “Dose-dependent mean difference of APD80” value (hiPSC-CM microtissues [1]; human, 20 min, 10 nM) was 11.1129, the “Dose-dependent mean difference of APDM×R” value (hiPSC-CM microtissues [1]; human, 20 min, 10 nM) was −14.786 and the “Dose-dependent mean difference of APDtri” value (hiPSC-CM microtissues [1]; human, 20 min, 10 nM) was −0.672. The “Dose-dependent mean difference of Rise Time” value (hiPSC-CM microtissues [1]; human, 20 min, 10 nM) was −0.3497, the “Dose-dependent mean difference of APD30” value (hiPSC-CM microtissues [1]; human, 20 min, 100 nM) was −17.808 and the “Dose-dependent mean difference of APD60” value (hiPSC-CM microtissues [1]; human, 20 min, 100 nM) was −16.8623. The “Dose-dependent mean difference of APD80” value (hiPSC-CM microtissues [1]; human, 20 min, 100 nM) was 10.0440, the “Dose-dependent mean difference of APDM×R” value (hiPSC-CM microtissues [1]; human, 20 min, 100 nM) was −23.7763 and the “Dose-dependent mean difference of APDtri” value (hiPSC-CM microtissues [1]; human, 20 min, 100 nM) was −6.828. The “Dose-dependent mean difference of Rise Time” value (hiPSC-CM microtissues [1]; human, 20 min, 100 nM) was −1.734, the “Dose-dependent mean difference of APD30” value (hiPSC-CM microtissues [1]; human, 20 min, 1000 nM) was −28.3006 and the “Dose-dependent mean difference of APD60” value (hiPSC-CM microtissues [1]; human, 20 min, 1000 nM) was −31.0489. For the same molecule, the “Dose-dependent mean difference of APD80” value (hiPSC-CM microtissues [1]; human, 20 min, 1000 nM) was −4.641, the “Dose-dependent mean difference of APDM×R” value (hiPSC-CM microtissues [1]; human, 20 min, 1000 nM) was −40.7783 and the “Dose-dependent mean difference of APDtri” value (hiPSC-CM microtissues [1]; human, 20 min, 1000 nM) was −9.615. For the same molecule, the “Dose-dependent mean difference of Rise Time” value (hiPSC-CM microtissues [1]; human, 20 min, 1000 nM) was −2.203, the IC50 (sodium channel Nav1.5) was 25 µM and the concentration promoting arrhythmias (rats) was 0.001 µM.
For `Nc1ccncc1` [4-AP], the “effect on APDtri” value (hiPSC-CM microtissues [1]) was “no effect on APDtri”, the APD (hiPSC-CM microtissues [1]; 0.5 mM) was “APD prolongation” and the “slope of APDtri versus APDMxR” value (hiPSC-CM microtissues [1]; 0.5 mM, p=0.199) was “did not steepen”.
With `COC(=O)C1=C(C)NC(C)=C([N+](=O)[O-])C1c1ccccc1C(F)(F)F` (stereo not shown) [BayK8644] the “effect on APDtri” value (hiPSC-CM microtissues [1]) was “no effect on APDtri”.
